≈ marks a conversion by molar mass, not a printed value. Calls of active or inactive are those of the source. No cut-off for these calls is given here.
Test system: OVCAR-3
Experiment: Cytotoxicity against human OVCAR-3 cells after 48 hrs by sulforhodamine B assay
Assay type: functional
Details: not given

| SMILES | GI50 |
| --- | --- |
| O=[N+]([O-])/C=C/c1ccc(OP(=O)(OCc2ccccc2)OCc2ccccc2)cc1 | inactive |
| COc1ccc(/C=C\c2cc(OC)c(OC)c(OC)c2)cc1O [COMBRETASTATIN A4] | inactive |
| Oc1ccc(/C=C/c2cc(O)cc(O)c2)cc1 [RESVERATROL] | inactive |

Test system: P388
Experiment: Cytotoxicity against mouse P388 cells after 48 hrs by sulforhodamine B assay
Assay type: functional
Details: P388, 48 h, read-out: ED50 (the source's name)

| SMILES | EC50 [µg/mL] |
| --- | --- |
| O=[N+]([O-])/C=C/c1ccc(OP(=O)(OCc2ccccc2)OCc2ccccc2)cc1 | 7 (≈ 16.5 µM) |
| COc1ccc(/C=C\c2cc(OC)c(OC)c(OC)c2)cc1O [COMBRETASTATIN A4] | 0.03 (≈ 0.0948 µM) |

Test system: Stenotrophomonas maltophilia
Experiment: Antimicrobial activity against Stenotrophomonas maltophilia ATCC 13637 assessed clear zone in inhibition per disk by CLSI disk diffusion susceptibility assay
Assay type: functional
Details: not given

| SMILES | MIC [µg] |
| --- | --- |
| O=[N+]([O-])/C=C/c1ccc(OP(=O)(OCc2ccccc2)OCc2ccccc2)cc1 | >100 |

Test system: Candida albicans
Experiment: Antimicrobial activity against Candida albicans ATCC 90028 assessed clear zone in inhibition per disk by CLSI disk diffusion susceptibility assay
Assay type: functional
Details: not given

| SMILES | MIC [µg] |
| --- | --- |
| O=[N+]([O-])/C=C/c1ccc(OP(=O)(OCc2ccccc2)OCc2ccccc2)cc1 | >100 |

Test system: Streptococcus pneumoniae
Experiment: Antimicrobial activity against Streptococcus pneumoniae ATCC 6303 assessed clear zone in inhibition per disk by CLSI disk diffusion susceptibility assay
Assay type: functional
Details: not given

| SMILES | MIC [µg] |
| --- | --- |
| O=[N+]([O-])/C=C/c1ccc(OP(=O)(OCc2ccccc2)OCc2ccccc2)cc1 | >100 |

Test system: MCF7
Experiment: Cytotoxicity against human MCF7 cells after 48 hrs by sulforhodamine B assay
Assay type: functional
Details: not given

| SMILES | GI50 |
| --- | --- |
| COc1ccc(/C=C\c2cc(OC)c(OC)c(OC)c2)cc1O [COMBRETASTATIN A4] | inactive |

Same assay, conditions: MCF7, 48 h

| SMILES | GI50 [µg/mL] |
| --- | --- |
| O=[N+]([O-])/C=C/c1ccc(OP(=O)(OCc2ccccc2)OCc2ccccc2)cc1 | > 10 |

Test system: Escherichia coli
Experiment: Antimicrobial activity against Escherichia coli ATCC 25922 assessed clear zone in inhibition per disk by CLSI disk diffusion susceptibility assay
Assay type: functional
Details: not given

| SMILES | MIC [µg] |
| --- | --- |
| O=[N+]([O-])/C=C/c1ccc(OP(=O)(OCc2ccccc2)OCc2ccccc2)cc1 | >100 |

Test system: Enterococcus faecalis
Experiment: Antimicrobial activity against Enterococcus faecalis ATCC 29212 assessed clear zone in inhibition per disk by CLSI disk diffusion susceptibility assay
Assay type: functional
Details: not given

| SMILES | MIC [µg] |
| --- | --- |
| O=[N+]([O-])/C=C/c1ccc(OP(=O)(OCc2ccccc2)OCc2ccccc2)cc1 | 6.25 |

Test system: SK-MEL-5
Experiment: Cytotoxicity against human SK-MEL-5 cells after 48 hrs by sulforhodamine B assay
Assay type: functional
Details: not given

| SMILES | GI50 |
| --- | --- |
| O=[N+]([O-])/C=C/c1ccc(OP(=O)(OCc2ccccc2)OCc2ccccc2)cc1 | inactive |
| COc1ccc(/C=C\c2cc(OC)c(OC)c(OC)c2)cc1O [COMBRETASTATIN A4] | inactive |
| Oc1ccc(/C=C/c2cc(O)cc(O)c2)cc1 [RESVERATROL] | inactive |

Test system: DU-145
Experiment: Cytotoxicity against human DU145 cells after 48 hrs by sulforhodamine B assay
Assay type: functional
Details: DU-145, 48 h

| SMILES | GI50 [µg/mL] |
| --- | --- |
| O=[N+]([O-])/C=C/c1ccc(OP(=O)(OCc2ccccc2)OCc2ccccc2)cc1 | > 10 |
| COc1ccc(/C=C\c2cc(OC)c(OC)c(OC)c2)cc1O [COMBRETASTATIN A4] | 0.0008 (≈ 0.00253 µM) |

Test system: SF-295
Experiment: Cytotoxicity against human SF295 cells after 48 hrs by sulforhodamine B assay
Assay type: functional
Details: not given

| SMILES | GI50 |
| --- | --- |
| O=[N+]([O-])/C=C/c1ccc(OP(=O)(OCc2ccccc2)OCc2ccccc2)cc1 | inactive |
| COc1ccc(/C=C\c2cc(OC)c(OC)c(OC)c2)cc1O [COMBRETASTATIN A4] | inactive |
| Oc1ccc(/C=C/c2cc(O)cc(O)c2)cc1 [RESVERATROL] | inactive |

Test system: Micrococcus luteus
Experiment: Antimicrobial activity against Micrococcus luteus Presque Isle 456 assessed clear zone in inhibition per disk by CLSI disk diffusion susceptibility assay
Assay type: functional
Details: not given

| SMILES | MIC [µg] |
| --- | --- |
| O=[N+]([O-])/C=C/c1ccc(OP(=O)(OCc2ccccc2)OCc2ccccc2)cc1 | 6.25 |

Test system: Cryptococcus neoformans
Experiment: Antimicrobial activity against Cryptococcus neoformans ATCC 90112 assessed clear zone in inhibition per disk by CLSI disk diffusion susceptibility assay
Assay type: functional
Details: not given

| SMILES | MIC [µg] |
| --- | --- |
| O=[N+]([O-])/C=C/c1ccc(OP(=O)(OCc2ccccc2)OCc2ccccc2)cc1 | 25 |

Test system: BXPC-3
Experiment: Cytotoxicity against human BxPC3 cells after 48 hrs by sulforhodamine B assay
Assay type: functional
Details: BXPC-3, 48 h

| SMILES | GI50 [µg/mL] |
| --- | --- |
| O=[N+]([O-])/C=C/c1ccc(OP(=O)(OCc2ccccc2)OCc2ccccc2)cc1 | > 10 |
| COc1ccc(/C=C\c2cc(OC)c(OC)c(OC)c2)cc1O [COMBRETASTATIN A4] | 0.39 (≈ 1.23 µM) |

Test system: not listed separately
Experiment: Inhibition of tubulin polymerization
Details: not given

| SMILES | IC50 [µM] |
| --- | --- |
| O=[N+]([O-])/C=C/c1ccc(OP(=O)(OCc2ccccc2)OCc2ccccc2)cc1 | 10 |
| COc1ccc(/C=C\c2cc(OC)c(OC)c(OC)c2)cc1O [COMBRETASTATIN A4] | 2.1 |
| Oc1ccc(/C=C/c2cc(O)cc(O)c2)cc1 [RESVERATROL] | > 40 |

Test system: SF-268
Experiment: Cytotoxicity against human SF268 cells after 48 hrs by sulforhodamine B assay
Assay type: functional
Details: SF-268, 48 h

| SMILES | GI50 [µg/mL] |
| --- | --- |
| O=[N+]([O-])/C=C/c1ccc(OP(=O)(OCc2ccccc2)OCc2ccccc2)cc1 | > 10 |

Test system: KM-20L2
Experiment: Cytotoxicity against human KM20L2 cells after 48 hrs by sulforhodamine B assay
Assay type: functional
Details: KM-20L2, 48 h

| SMILES | GI50 [µg/mL] |
| --- | --- |
| O=[N+]([O-])/C=C/c1ccc(OP(=O)(OCc2ccccc2)OCc2ccccc2)cc1 | > 10 |
| COc1ccc(/C=C\c2cc(OC)c(OC)c(OC)c2)cc1O [COMBRETASTATIN A4] | 0.34 (≈ 1.07 µM) |

Test system: Neisseria gonorrhoeae
Experiment: Antimicrobial activity against Neisseria gonorrhoeae ATCC 49226 assessed clear zone of inhibition measured per disk by CLSI disk diffusion susceptibility assay
Assay type: functional
Details: not given

| SMILES | MIC [µg] |
| --- | --- |
| O=[N+]([O-])/C=C/c1ccc(OP(=O)(OCc2ccccc2)OCc2ccccc2)cc1 | 0.78 |

Test system: NCI-H460
Experiment: Cytotoxicity against human NCI-H460 cells after 48 hrs by sulforhodamine B assay
Assay type: functional
Details: NCI-H460, 48 h

| SMILES | GI50 [µg/mL] |
| --- | --- |
| O=[N+]([O-])/C=C/c1ccc(OP(=O)(OCc2ccccc2)OCc2ccccc2)cc1 | > 10 |
| COc1ccc(/C=C\c2cc(OC)c(OC)c(OC)c2)cc1O [COMBRETASTATIN A4] | 0.0006 (≈ 0.0019 µM) |

Test system: A498
Experiment: Cytotoxicity against human A498 cells after 48 hrs by sulforhodamine B assay
Assay type: functional
Details: not given

| SMILES | GI50 |
| --- | --- |
| O=[N+]([O-])/C=C/c1ccc(OP(=O)(OCc2ccccc2)OCc2ccccc2)cc1 | inactive |
| COc1ccc(/C=C\c2cc(OC)c(OC)c(OC)c2)cc1O [COMBRETASTATIN A4] | inactive |
| Oc1ccc(/C=C/c2cc(O)cc(O)c2)cc1 [RESVERATROL] | inactive |

Test system: Staphylococcus aureus
Experiment: Antimicrobial activity against Staphylococcus aureus ATCC 29213 assessed clear zone in inhibition per disk by CLSI disk diffusion susceptibility assay
Assay type: functional
Details: not given

| SMILES | MIC [µg] |
| --- | --- |
| O=[N+]([O-])/C=C/c1ccc(OP(=O)(OCc2ccccc2)OCc2ccccc2)cc1 | 3.12 |

Test system: Enterobacter cloacae
Experiment: Antimicrobial activity against Enterobacter cloacae ATCC 13047 assessed clear zone in inhibition per disk by CLSI disk diffusion susceptibility assay
Assay type: functional
Details: not given

| SMILES | MIC [µg] |
| --- | --- |
| O=[N+]([O-])/C=C/c1ccc(OP(=O)(OCc2ccccc2)OCc2ccccc2)cc1 | >100 |

From ChEMBL document CHEMBL1152576, “E-Combretastatin and E-resveratrol structural modifications: antimicrobial and cancer cell growth inhibitory beta-E-nitrostyrenes” (Bioorg Med Chem, 2009)
